The species named for assay [1] is Rattus norvegicus. Briefly: Antihyperglycemic activity in streptozotocin induced diabetic model of Sprague-Dawley albino rat assessed as reduction in blood glucose by AUC method. In kind it is functional. Details: scale not given: the % may be the effect or the level left.
The species entered for assay [2] is Rattus norvegicus. Briefly: Antihyperglycemic activity in sucrose loaded model of Sprague-Dawley albino rat assessed as reduction in blood glucose by AUC method. Details: scale not given: the % may be the effect or the level left. In kind it is functional.

Take `O=C(/C=C/c1ccc(OCC(O)CN2CCCCC2)cc1)c1ccccc1` (stereo unspecified): the Activity in assay [1] came to 19.3%; in assay [2], 22.3%. For the compound `CC(C)CNCC(O)COc1ccc(/C=C/C(=O)c2ccccc2)cc1` (stereo unspecified), in assay [2], the Activity was found to be 6.5%. Take `O=C(/C=C/c1cccc(OCC(O)CN2CCN(c3ccccc3Cl)CC2)c1)c1ccccc1` (stereo unspecified): the Activity in assay [1] was 8.3%; in assay [2], 19%. Regarding `CC(C)(C)NCC(O)COc1ccc(/C=C/C(=O)c2ccccc2)cc1` (stereo unspecified), the Activity in assay [1] is on record as 10.3%; in assay [2], 29%. For the compound `O=C(/C=C/c1cccc(OCC(O)CN2CCCCC2)c1)c1ccccc1` (stereo unspecified), the Activity in assay [1] was 9.4%; in assay [2], 11.3%. `CC(C)CNCC(O)COc1cccc(/C=C/C(=O)c2ccccc2)c1` (stereo unspecified): in assay [2], the Activity is listed as 14.5%. For the compound `O=C(/C=C/c1cccc(OCC(O)CN2CCN(c3ccccc3)CC2)c1)c1ccccc1` (stereo unspecified), the Activity was determined as 10.4% in assay [1] and 22.9% in assay [2]. On the same counts, the results for `O=C(/C=C/c1ccc(OCC(O)CN2CCN(c3ccccc3)CC2)cc1)c1ccccc1` (stereo unspecified) are 3% and 31.1%. On the same counts, the results for `CN1CCN(CC(O)COc2cccc(/C=C/C(=O)c3ccccc3)c2)CC1` (stereo unspecified) are 20.1% and 20.4%. Regarding `CC(C)N(CC(O)COc1cccc(/C=C/C(=O)c2ccccc2)c1)C(C)C` (stereo unspecified), the Activity in assay [1] stood at 22.6%; in assay [2], 26.7%. As to `CC(C)N(CC(O)COc1ccc(/C=C/C(=O)c2ccccc2)cc1)C(C)C` (stereo unspecified), in assay [2], the Activity was determined as 7.9%.

For the compound `CC(C)(C)NCC(O)COc1cccc(/C=C/C(=O)c2ccccc2)c1` (stereo unspecified), the Activity in assay [1] was 10.6%; in assay [2], 21.7%. For `CCN(CC)CCCNCC(O)COc1cccc(/C=C/C(=O)c2ccccc2)c1` (stereo unspecified) the same measures were 8.3% and 20.8%. On the same counts, the results for `COc1ccc(Cl)cc1C(=O)NCCc1ccc(S(=O)(=O)NC(=O)NC2CCCCC2)cc1` [GLYBURIDE] are 29% and 33.7%. Regarding `CN(C)C(=N)NC(=N)N` [METFORMIN], in assay [2], the Activity was 12.9%.

For the origin of these results see ChEMBL document CHEMBL1138412, “Chalcone based aryloxypropanolamines as potential antihyperglycemic agents” (2007).
